{
  "source": "PubChem BioAssay AID1259409",
  "about": "(Chemical Carcinogenesis Research Information System (CCRIS), 2018)",
  "origin": "cited, not measured here",
  "test_system": "rodent chemically induced tumor inhibition, incidence and multiplicity",
  "assay": "CCRIS tumor inhibitor studies",
  "conditions": "Promoter: NONE USED",
  "data": [
    {"smiles": "Cc1cc(C(C)(C)C)c(O)c(C(C)(C)C)c1", "values": [
      {"measurement": "tumour outcome (control, treated, inhibition, significance)", "setting": "Carcinogen: N-BIS(2-HYDROXYPROPYL)NITROSAMINE, 53609-64-6, Dose [Inhibitor]: 0, 1% IN DIET FOR 30 WK BEGINNING POST CARCINOGEN TREATMENT (STUDY DURATION: 32 WK), Route [Inhibitor]: ORAL, Species: RAT, Strain/Sex: F344/MALE, Target Tissue: Type of Lesion: LUNG: ADENOMA, Dose [Carcinogen]: 0.1% IN DRINKING WATER FOR 2 WK", "result": "100%, 85%, 15%, not calculated"},
      {"measurement": "tumour outcome (control, treated, inhibition, significance)", "setting": "Carcinogen: N-BIS(2-HYDROXYPROPYL)NITROSAMINE, 53609-64-6, Dose [Inhibitor]: 0, 1% IN DIET FOR 30 WK BEGINNING POST CARCINOGEN TREATMENT (STUDY DURATION: 32 WK), Route [Inhibitor]: ORAL, Species: RAT, Strain/Sex: F344/MALE, Target Tissue: Type of Lesion: LUNG: CARCINOMA, Dose [Carcinogen]: 0.1% IN DRINKING WATER FOR 2 WK", "result": "45%, 5%, 89%, p<0.01"},
      {"measurement": "tumour outcome (control, treated, inhibition, significance)", "setting": "Carcinogen: N-BIS(2-HYDROXYPROPYL)NITROSAMINE, 53609-64-6, Dose [Inhibitor]: 0, 1% IN DIET FOR 30 WK BEGINNING POST CARCINOGEN TREATMENT (STUDY DURATION: 32 WK), Route [Inhibitor]: ORAL, Species: RAT, Strain/Sex: F344/MALE, Target Tissue: Type of Lesion: THYROID: ADENOMA, Dose [Carcinogen]: 0.1% IN DRINKING WATER FOR 2 WK", "result": "5%, 60%, -1100%, not calculated"},
      {"measurement": "tumour outcome (control, treated, inhibition, significance)", "setting": "Carcinogen: N-BIS(2-HYDROXYPROPYL)NITROSAMINE, 53609-64-6, Dose [Inhibitor]: 0, 1% IN DIET FOR 30 WK BEGINNING POST CARCINOGEN TREATMENT (STUDY DURATION: 32 WK), Route [Inhibitor]: ORAL, Species: RAT, Strain/Sex: F344/MALE, Target Tissue: Type of Lesion: THYROID: CARCINOMA, Dose [Carcinogen]: 0.1% IN DRINKING WATER FOR 2 WK", "result": "20%, 15%, 25%, not calculated"},
      {"measurement": "tumour outcome (control, treated, inhibition, significance)", "setting": "Carcinogen: N-METHYL-N'-NITRO-N-NITROSOGUANIDINE, 70-25-7, N-ETHYL-N-HYDROXYETHYLNITROSAMINE, 13147-25-6, N-METHYLBENZYLNITROSAM, Carcinogen: N-METHYL-N'-NITRO-N-NITROSOGUANIDINE, 70-25-7, N-ETHYL-N-HYDROXYETHYLNITROSAMINE, 13147-25-6, N-METHYLBENZYLNITROSAM, Dose [Inhibitor]: 0, 0.7% IN DIET FOR 36 WK (STUDY DURATION: 36 WK), Route [Inhibitor]: ORAL, Species: RAT, Strain/Sex: F344/MALE, Target Tissue: Type of Lesion: COLON: CARCINOMA, Dose [Carcinogen]: 100 MG/KG BW MNNG ONCE, 750 MG/KG BW EHEN ONCE, 0.5 MG/KG BW MBN TWICE, 40 MG/KG BW DMH 4 TIMES, 0.05% DBN IN DRINKING W", "result": "10/18 (56%), 0/18 (0%), 100%, p<0.01"},
      {"measurement": "tumour outcome (control, treated, inhibition, significance)", "setting": "Carcinogen: N-METHYL-N'-NITRO-N-NITROSOGUANIDINE, 70-25-7, N-ETHYL-N-HYDROXYETHYLNITROSAMINE, 13147-25-6, N-METHYLBENZYLNITROSAM, Carcinogen: N-METHYL-N'-NITRO-N-NITROSOGUANIDINE, 70-25-7, N-ETHYL-N-HYDROXYETHYLNITROSAMINE, 13147-25-6, N-METHYLBENZYLNITROSAM, Dose [Inhibitor]: 0, 0.7% IN DIET FOR 36 WK (STUDY DURATION: 36 WK), Route [Inhibitor]: ORAL, Species: RAT, Strain/Sex: F344/MALE, Target Tissue: Type of Lesion: KIDNEY: RENAL CELL TUMOR, Dose [Carcinogen]: 100 MG/KG BW MNNG ONCE, 750 MG/KG BW EHEN ONCE, 0.5 MG/KG BW MBN TWICE, 40 MG/KG BW DMH 4 TIMES, 0.05% DBN IN DRINKING W", "result": "8/18 (44%), 1/18 (6%), 86%, p<0.01"},
      {"measurement": "outcome", "setting": "Carcinogen: N-METHYL-N'-NITRO-N-NITROSOGUANIDINE, 70-25-7, N-ETHYL-N-HYDROXYETHYLNITROSAMINE, 13147-25-6, N-METHYLBENZYLNITROSAM, Carcinogen: N-METHYL-N'-NITRO-N-NITROSOGUANIDINE, 70-25-7, N-ETHYL-N-HYDROXYETHYLNITROSAMINE, 13147-25-6, N-METHYLBENZYLNITROSAM, Dose [Inhibitor]: 0, 0.7% IN DIET FOR 36 WK (STUDY DURATION: 36 WK), Route [Inhibitor]: ORAL, Species: RAT, Strain/Sex: F344/MALE, Target Tissue: Type of Lesion: THYROID GLAND: ADENOMA OR CARCINOMA, Dose [Carcinogen]: 100 MG/KG BW MNNG ONCE, 750 MG/KG BW EHEN ONCE, 0.5 MG/KG BW MBN TWICE, 40 MG/KG BW DMH 4 TIMES, 0.05% DBN IN DRINKING W", "result": "0/18 (0%), 6/18 (33%), -333%, p<0.05"},
      {"measurement": "tumour outcome (control, treated, inhibition, significance)", "setting": "Carcinogen: N-METHYL-N-NITROSOUREA, 684-93-5, Dose [Inhibitor]: 0.3% IN DIET FROM WEANING ONWARD (STUDY DURATION: 6 MO AFTER CARCINOGEN ADMINISTRATION), Route [Inhibitor]: ORAL, Species: RAT, Strain/Sex: SPRAGUE-DAWLEY/FEMALE, Target Tissue: Type of Lesion: MAMMARY GLAND: ADENOCARCINOMA, Dose [Carcinogen]: SINGLE INJECTION VIA DORSAL TAIL VEIN AT 5 MG/100 G BODY WEIGHT. MNU WAS WET IN 3% ACETIC ACID + DISSOLVED IN WATER (DOU", "result": "21/30 (70%), 22/30 (73%), -4%, not significant"},
      {"measurement": "tumour outcome (control, treated, inhibition, significance)", "setting": "Carcinogen: N-METHYL-N-NITROSOUREA, 684-93-5, Dose [Inhibitor]: 0.3% IN HIGH POLYUNSATURATED FAT DIET DAILY STARTING 29 D BEFORE CARCINOGEN TREATMENT AND CONTINUING FOR THE DURATION OF, Route [Inhibitor]: ORAL, Species: RAT, Strain/Sex: SPRAGUE-DAWLEY/FEMALE, Target Tissue: Type of Lesion: MAMMARY GLAND: ADENOCARCINOMA, Dose [Carcinogen]: 5 MG/100 G BW ONCE AT 50 D OF AGE", "result": "70%, 73%, -4%, not calculated"},
      {"measurement": "tumour outcome (control, treated, inhibition, significance)", "setting": "Carcinogen: URETHANE, 51-79-6, Dose [Inhibitor]: 0.75% IN DIET 1/WK FOR 24 HR AFTER OVERNIGHT FAST FOR 8 WK 1 WK AFTER CARCINOGEN TREATMENT (STUDY DURATION: 4 MO), Route [Inhibitor]: ORAL, Species: MOUSE, Strain/Sex: STRAIN-A/MALE, Target Tissue: Type of Lesion: LUNG: TYPE II ALVEOLAR CELL TUMORS, CLARA CELL TUMORS, Dose [Carcinogen]: 250 MG/KG, ONCE AT 8 WK OF AGE", "result": "85%, 91%, -7%, not significant"},
      {"measurement": "tumour outcome (control, treated, inhibition, significance)", "setting": "Carcinogen: URETHANE, 51-79-6, Dose [Inhibitor]: 0.75% IN DIET 1/WK FOR 24 HR AFTER OVERNIGHT FAST FOR 8 WK 1 WK AFTER CARCINOGEN TREATMENT (STUDY DURATION: 4 MO), Route [Inhibitor]: ORAL, Species: MOUSE, Strain/Sex: STRAIN-A/MALE, Target Tissue: Type of Lesion: LUNG: TYPE II ALVEOLAR CELL TUMORS, CLARA CELL TUMORS, Dose [Carcinogen]: 500 MG/KG, ONCE AT 8 WK OF AGE", "result": "100%, 100%, 0%, not significant"},
      {"measurement": "tumour outcome (control, treated, inhibition, significance)", "setting": "Carcinogen: URETHANE, 51-79-6, Dose [Inhibitor]: 0.75% IN DIET 1/WK FOR 24 HR AFTER OVERNIGHT FAST FOR 8 WK BEGINNING 1 WK POST CARCINOGEN TREATMENT (STUDY DURATION: 4 M, Route [Inhibitor]: ORAL, Species: MOUSE, Strain/Sex: STRAIN A/MALE, Target Tissue: Type of Lesion: LUNG: TYPE II ALVEOLAR CELL TUMORS, CLARA CELL TUMORS, Dose [Carcinogen]: 500 MG/KG, ONCE AT 8 WK OF AGE", "result": "100%, 97%, 3%, not significant"},
      {"measurement": "outcome", "setting": "Carcinogen: URETHANE, 51-79-6, Dose [Inhibitor]: 0.75% IN DIET FOR 2 WK BEFORE CARCINOGEN TREATMENT (STUDY DURATION: 4 MO), Route [Inhibitor]: ORAL, Species: MOUSE, Strain/Sex: STRAIN-A/MALE, Target Tissue: Type of Lesion: LUNG: TYPE II ALVEOLAR CELL TUMORS, CLARA CELL TUMORS, Dose [Carcinogen]: 1000 MG/KG, ONCE", "result": "100%, 100%, o%, not significant"},
      {"measurement": "tumour outcome (control, treated, inhibition, significance)", "setting": "Carcinogen: URETHANE, 51-79-6, Dose [Inhibitor]: 0.75% IN DIET, DAILY BEGINNING 1 D AFTER CARCINOGEN TREATMENT FOR 8 WK (STUDY DURATION: 4 MO), Route [Inhibitor]: ORAL, Species: MOUSE, Strain/Sex: STRAIN-A/MALE, Target Tissue: Type of Lesion: LUNG: TYPE II ALVEOLAR CELL TUMORS, CLARA CELL TUMORS, Dose [Carcinogen]: 250 MG/KG, ONCE AT 8 WK OF AGE", "result": "96%, 90%, 6%, not significant"},
      {"measurement": "tumour outcome (control, treated, inhibition, significance)", "setting": "Carcinogen: URETHANE, 51-79-6, Dose [Inhibitor]: 0.75% IN DIET, DAILY BEGINNING 1 D AFTER CARCINOGEN TREATMENT FOR 8 WK (STUDY DURATION: 40 MO), Route [Inhibitor]: ORAL, Species: MOUSE, Strain/Sex: STRAIN-A/MALE, Target Tissue: Type of Lesion: LUNG: TYPE II ALVEOLAR CELL TUMORS, CLARA CELL TUMORS, Dose [Carcinogen]: 500 MG/KG, ONCE AT 8 WK OF AGE", "result": "100%, 100%, 0%, not significant"},
      {"measurement": "tumour outcome (control, treated, inhibition, significance)", "setting": "Carcinogen: URETHANE, 51-79-6, Dose [Inhibitor]: 300 MG/KG 1 WK AFTER CARCINOGEN DOSE 1/WK FOR 8 WK (STUDY DURATION: 4 MO), Route [Inhibitor]: INTRAPERITONEAL, Species: MOUSE, Strain/Sex: STRAIN-A/MALE, Target Tissue: Type of Lesion: LUNG: TYPE II ALVEOLAR CELL TUMORS, CLARA CELL TUMORS, Dose [Carcinogen]: 500 MG/KG, ONCE AT 8 WK OF AGE", "result": "97%, 100%, -3%, not significant"}
    ]}
  ]
}
